From US6949356B1, “Methods for improving secondary metabolite production in fungi” (Microbia, Inc., priority 1999, dated 2005)

System: S. cerevisiae strain 22409
Experiment: Lovastatin resistance test: yeast transformants spotted to SC-URA agar containing different concentrations of lovastatin (FIG. 1)
Format: cell-based, Saccharomyces cerevisiae
Protocol: These genes are predicted to encode proteins, denoted by Genbank accession numbers AAD34558 (hereafter referred to as PUMP1) and AAD34564 (hereby referred to as PUMP2), that are members of the MFS class of transporters. As described above, some MFS transporters are known to confer resistance to toxic compounds. PUMP1 and PUMP2 were tested for their ability to confer resistance to otherwise toxic levels of lovastatin when expressed in the fungus S. cerevisiae.
The polyA+ fraction of the A. terreus total RNA was isolated using Oligotex beads (Qiagen Inc.). Purified polyA+ RNA (5 μg) was used to generate complementary DNA (cDNA) using Superscript Reverse Transcriptase (Gibco BRL, 9800 Medical Center Drive, PO Box 6482, Rockville, Md. 20849) according to the instructions of the manufacturer. The cDNA was then used to isolate and clone PUMP1 and PUMP2 gene sequences using the polymerase chain reaction (PCR) and Gateway (Life Technologies) Cloning Technology (U.S. Pat. No. 5,888,732). Oligonucleotide sequences used for PCR were 5′-[…]-3′ (SEQ ID NO: 7) and 5′-[…]-3′ (SEQ ID NO: 8) for PUMP1. Oligonucleotide sequences used for PUMP2 PCR were 5′-[…]-3′ (SEQ ID NO: 9) and 5′-[…]-3′ (SEQ ID NO: 10). The resultant plasmids, MB1333 and MB1334, were designed to express PUMP1 and PUMP2, respectively, under control of the S. cerevisiae TEF1 promoter. The plasmids carry a functional URA3 gene to allow for selection of the plasmid on media lacking uracil in a ura3 mutant strain. These plasmids also contained a 2-micron origin for high-copy replication in yeast. […] Environ. Microbiol. 63: 33414 (1997) as pRH127-3, that expresses a soluble form of HMG CoA reductase under control of the yeast GPD1 promoter and is known to confer resistance to increased levels of lovastatin (Donald et al., Appl. Environ. Microbiol. 63: 3341-4 (1997)).
MB1333, MB1334, MB969 and MB1344 were transformed into the yeast strain 22409 (Research Genetics, USA) using standard transformation methods for S. cerevisiae (Biotechniques, 1992, 13(1): 18). Strain 22409 is derived from the S288c strain background of S. cerevisiae, and its complete genotype is as follows: MATa/α, his3Δ1/his3Δ1, leu2Δ1/leu2Δ0, ura3Δ0/ura3Δ0, LYS2/lys2Δ0, MET15/met15Δ0 pdr5::G418/PDR5. Transformants were grown overnight at 30° C. in synthetic complete media lacking uracil (SC-U) to maintain selection for the plasmid. Cultures were diluted 1:10 in sterile water, and 5 μl of each strain was spotted to SC-URA agar containing different concentrations of lovastatin as shown in FIG. 1.

SMILES: CC[C@H](C)C(=O)O[C@H]1C[C@@H](C)C=C2C=C[C@H](C)[C@H](CC[C@@H]3C[C@@H](O)CC(=O)O3)[C@H]21 [lovastatin]
- growth inhibition by lovastatin (positive control strain carrying MB1344 (soluble fragment of HMG CoA reductase overexpressed), highest concentration of lovastatin tested, 150 μg/ml): no obvious growth inhibition
- growth inhibition by lovastatin (strain expressing PUMP2 (MB1334), lowest concentration of lovastatin tested, 50 μg/mL): growth inhibition
- growth inhibition by lovastatin (strain harboring MB1333 (expressing PUMP1), highest concentration of lovastatin tested, 150 μg/ml): no obvious growth inhibition
- growth inhibition by lovastatin (vector-only control strain (MB969), lowest concentration of lovastatin tested, 50 μg/mL): growth inhibition
